# Tests used:
# [1] = system: HET cells (THEKs); assay: Immunoblot of KRT10 and KRT14 in keratinocyte lysates; format: cell-based, human; conditions: 1 μM Dab, 1 μM Tram, 10 μM U0126, 10 μM PD184352, 20 μM PD98059 (FIG. 10D)
# Protocol: THEKs were seeded at a density of 1×10^6 cells per well of 6-well cell culture dishes in KSFM. Upon reaching confluence, KSFM was replaced with E-medium containing vehicle control (DMSO) or inhibitors at the following concentrations: Dabrafenib (1 μM), trametinib (1 μM), U0126 (10 μM), PD184352 (10 μM), or PD98059 (20 μM). After 72 hours, whole-cell lysates were generated by washing cells once in PBS followed by lysis in urea sample buffer [8 M Urea, 60 mM Tris, 1% sodium dodecyl sulfate (SDS), 10% glycerol, 5% β-mercaptoethanol, 0.0005% pyronin-Y, pH 6.8] for 10 min. Lysates were homogenized using a microtip probe sonicator (Fisher Scientific).
# Whole-cell lysates were loaded onto Any kD Mini-PROTEAN TGX Precast Protein Gels (Bio-Rad) and separated by electrophoresis. Proteins were transferred onto nitrocellulose membranes (Bio-Rad) in ice-cold Towbin transfer buffer (25 mM Tris, 192 mM glycine, 20% (v/v) methanol) at 100 volts (V) for 90 minutes at 4° C. Membranes were blocked in Intercept tris-buffered saline (TBS) blocking buffer (LI-COR) for 45 min at room temperature. Membranes were probed overnight at 4° C. with the primary antibodies diluted at 1:1000 in Intercept TBS blocking buffer (LI-COR). […]
# [2] = system: NHEKs; assay: Immunofluorescence of plakoglobin / desmosomal protein localization; format: cell-based, human; conditions: B-RAF inhibitor alone, 24 hours in E-medium
# Protocol: Keratinocytes were grown to confluency in 35 mm glass-bottom cell culture dishes (MatTek of Ashland, MA, Cat. #P35G-1.5-20-C). For staining keratins and desmosomal proteins, cells were fixed in ice-cold 100% methanol at −20° C. for 2 minutes, allowed to dry, then re-hydrated in PBS. For staining other proteins, cells were fixed in 4% paraformaldehyde for 10 minutes at 37° C. Fixed cells were then incubated with blocking buffer [0.5% (w/v) bovine serum albumin (BSA, Sigma), 10% (w/v) normal goat serum (NGS, Sigma) in PBS] for 30 min at 37° C. Cells were then washed with PBS. Primary antibodies were diluted in 0.5% (w/v) BSA in PBS and incubated on the cells overnight at 4° C. Primary antibody dilutions were as follows: chicken anti-plakoglobin (1:1000). […]
# Images were acquired on a Hamamatsu ORCA-FusionBT sCMOS camera (Hamamatsu of Hamamatsu City, Japan) using a Yokogawa W1 spinning-disk confocal (SDC) system (Yokogawa of Musashino, Tokyo, Japan) on a Nikon Ti2 microscope (Nikon of Minato City, Tokyo, Japan). Samples were illuminated using 405, 488, 561, and 640 nm laser excitation lines and fluorescence was detected using a 60×1.2 numerical aperture (NA) water objective (Nikon) with standard emission filters.
compound,measurement,setting,value
CC(C)(C)c1nc(-c2cccc(NS(=O)(=O)c3c(F)cccc3F)c2F)c(-c2ccnc(N)n2)s1 [dabrafenib],KRT10 by immunoblot,[1],failed to rescue KRT10 expression
same,localization of desmosomal proteins,[2],induced mislocalization of desmosomal proteins
